# Experimental data reported in patent publication US20250090439A1, “COMPOSITION COMPRISING HYDRANGENOL AS ACTIVE INGREDIENT FOR IMPROVING HAIR OR SCALP CONDITION” (COSMAX BIO CO., LTD., priority 2021, published 2025).
# Columns and labels:
# 5α-reductase = molecular target: T1, 5α-reductase (Rattus norvegicus, UniProt P24008); experiment: 5α-reductase enzyme activity inhibition (rat liver homogenate, testosterone quantified by HPLC); type: biochemical; details: treated at 125 μg/ml, 250 μg/ml, or 500 μg/ml; 37° C., 30 minutes; FIGS. 7A and 7B
# T1 construct: After centrifuging the homogenate at 10,000 xg for 10 minutes, the supernatant was […] to prepare an enzyme solution; from tissue; host or cells: liver of 7-week-old male SD rat (10,000 x g supernatant of homogenate)
# T1 sequence (P24008 1-259): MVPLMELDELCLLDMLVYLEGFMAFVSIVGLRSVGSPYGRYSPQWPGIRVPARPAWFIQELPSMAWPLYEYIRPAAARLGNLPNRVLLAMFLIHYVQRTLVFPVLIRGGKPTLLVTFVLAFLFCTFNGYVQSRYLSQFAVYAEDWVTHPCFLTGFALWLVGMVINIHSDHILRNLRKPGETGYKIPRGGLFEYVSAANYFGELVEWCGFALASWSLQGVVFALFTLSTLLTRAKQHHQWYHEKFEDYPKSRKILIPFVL
# Description: 5α-reductase reduces testosterone to produce dihydrotestosterone (DHT). After reacting rat liver homogenate with testosterone, the ability to inhibit 5α-reductase enzyme activity was measured using a method of quantify testosterone.
# First, a 7-week-old male SD rat was prepared and anesthetized using ethyl ether. After SD rats were laparotomised, the hepatic portal vein thereof was nicked, and cold STM buffer (270 mM sucrose, 10 mM Tris-HCl, pH7.5, 1 mM MgCl2, G-biosciences, USA) was injected into the left ventricle using a syringe. The injection was continued until the STM buffer was perfused into the liver and the color of the liver changed from dark red to light pink. Afterwards, the liver was removed, transferred to a beaker, cut with scissors, and homogenized after adding STM buffer in an amount three times that of the liver. After centrifuging the homogenate at 10,000 xg for 10 minutes, the supernatant was […] to prepare an enzyme solution. […] The dichloromethane layer was separated, concentrated, dissolved in 50% methanol, and quantified using high-performance chromatography. The 5α-reductase inhibition ability was calculated using the formula: 5α-reductase inhibition ability (%)=[1−(area value of sample-area value of blank sample)/(area value of test group-area value of blank sample)]×100.
# [1] = tested on: human follicle dermal papilla cells (HFDPC); experiment: Cytotoxicity in dermal papilla cells (MTT assay); type: cell-based; details: 24 hours
# Description: It was confirmed whether the Hydrangea serrata extract and hydrangenol obtained according to Examples 1 and 2 were cytotoxic to human follicle dermal papilla cells (HFDPC).
# HFDPC cells were cultured in follicle dermal papilla cell growth medium including supplement mix (5% fetal calf serum, 0.5% bovine pituitary extract, 0.5 μg basic fibroblast growth factor, and 2.5 mg insulin) and 1% antibiotic antimycotic solution. HDFPC cell lines were seeded into a 96-well plate at a concentration of 1.0×10^4 cells/well and incubated in a CO2 incubator conditioned at 37° C., 95% humidity, and 5% CO2 for 24 hours. Subsequently, the medium was replaced with medium without supplement mix and was treated with samples of each concentration and after 24 hours of incubation, cell viability was measured by MTT assay. The MTT assay is a method to measure the amount of formazan formed from MTT reduced by the mitochondria of living cells. More specifically, 100 μl of 0.5 mg/mL MTT solution was applied to each cell and incubated for 4 hours. Then, the solution was completely removed and the absorbance of the plate dissolved in DMSO was measured at 540 nm.
# HFDPC cell lines = experiment: Cell proliferation in dermal papilla cells (MTT assay); type: cell-based, human; details: treated for 3 and 6 days, 25 μg/ml and 50 μg/ml
# Description: Based on the results of the dermal papilla cell toxicity test confirmed above, the cell proliferation effect of the Hydrangea serrata extract and hydrangenol obtained in Examples 1 and 2 was confirmed. HFDPC cell lines were seeded into a 96-well plate at a concentration of 1.0×10^3 cells/well and incubated in a CO2 incubator conditioned at 37° C., 95% humidity, and 5% CO2 for 24 hours. Subsequently, after treatment with samples at each concentration, cell proliferation was measured by MTT assay after 1, 3, and 6 days of incubation. More specifically, after treatment with samples of each concentration, the incubation was proceeded for 24, 72, and 144 hours, and then each cell was treated with 100 μl of 0.5 mg/ml MTT solution, and after 4 hours, the solution was completely removed and the plates dissolved in DMSO were measured at an absorbance of […].
smiles,measurement,setting,value
"O=C1OC(c2ccc(O)cc2)Cc2cccc(O)c21 (stereo not shown) [hydrangenol, 8-hydroxy-3-(4-hydroxyphenyl)-3,4-dihydroisochromen-1-one]",5α-reductase inhibitory activity,5α-reductase,5α-reductase inhibitory activity in a concentration-dependent manner
same,cytotoxicity (cell viability by MTT),"[1]; 1.56, 3.12, 6.25, 12.5, 25, 50 and 100 μg/ml",no cytotoxicity was shown at all concentrations
same,cell growth,[1]; concentrations of 3.12 μg/ml to 100 μg/ml,significantly increase cell growth
same,cell growth (cell proliferation by MTT),HFDPC cell lines,cell growth was significantly increased
